{"source": "ChEMBL document CHEMBL1201862", "about": "“PubChem BioAssay data set” (2004)", "key": {"[1]": {"biological_target": "Mitogen-activated protein kinase 10 (Homo sapiens, UniProt P53779)", "sequence (P53779 whole entry)": "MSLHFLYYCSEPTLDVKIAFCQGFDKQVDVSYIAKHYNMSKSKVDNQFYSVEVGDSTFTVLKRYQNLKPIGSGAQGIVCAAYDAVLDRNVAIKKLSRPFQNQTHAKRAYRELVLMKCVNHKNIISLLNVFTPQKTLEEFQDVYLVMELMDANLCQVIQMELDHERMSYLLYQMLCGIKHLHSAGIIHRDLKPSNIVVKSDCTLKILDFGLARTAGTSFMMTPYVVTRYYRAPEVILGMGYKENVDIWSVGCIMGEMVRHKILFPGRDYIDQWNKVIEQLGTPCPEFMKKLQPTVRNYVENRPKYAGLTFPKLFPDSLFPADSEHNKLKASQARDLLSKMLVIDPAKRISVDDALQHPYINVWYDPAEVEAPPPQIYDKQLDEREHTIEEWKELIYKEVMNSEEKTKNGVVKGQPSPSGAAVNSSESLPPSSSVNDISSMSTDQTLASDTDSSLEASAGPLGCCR", "test": "Dose response biochemical screening assay for inhibitors of c-Jun N-Terminal Kinase 3 (JNK3). [Related pubchem assays: 746 ]"}, "[2]": {"test": "cytotoxicity toward NIH3T3 fibroblasts, dose response, counter-screen, cell-based, ATP luminescence, mouse fibroblasts (AID 2010);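 note: cells exposed to compound for about 90 hours before reading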", "format": "functional"}, "[3]": {"test": "inhibitors of intracellular T. cruzi replication, confirmation, NIH3T3 host cells, beta-gal luminescence (AID 2044);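 note: luminescent beta-galactosidase reporter signal from transgenic T. cruzi replicating inside host cells; inhibitors lower the luminescence signal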", "format": "functional, cell-based"}, "[4]": {"test": "HepG2 cell cytotoxicity, dose response, cytotoxicity control, ATP luminescence, cherry-pick, activator set 2 (AID 1053143)", "format": "functional, cell-based"}, "[5]": {"biological_target": "T1, Mannose-6-phosphate isomerase (Homo sapiens, UniProt P34949)", "T1 sequence (P34949 whole entry)": "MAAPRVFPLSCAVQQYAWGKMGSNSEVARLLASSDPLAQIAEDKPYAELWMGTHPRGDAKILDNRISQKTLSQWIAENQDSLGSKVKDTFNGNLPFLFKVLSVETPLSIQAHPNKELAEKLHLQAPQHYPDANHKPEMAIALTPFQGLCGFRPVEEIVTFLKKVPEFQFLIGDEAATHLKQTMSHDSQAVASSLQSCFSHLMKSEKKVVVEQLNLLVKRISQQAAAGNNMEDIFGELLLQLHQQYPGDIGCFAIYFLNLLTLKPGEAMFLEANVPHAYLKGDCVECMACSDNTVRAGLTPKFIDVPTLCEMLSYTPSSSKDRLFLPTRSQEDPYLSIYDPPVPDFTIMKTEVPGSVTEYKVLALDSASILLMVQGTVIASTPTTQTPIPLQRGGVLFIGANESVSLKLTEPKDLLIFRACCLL", "test": "human PMI inhibitors, high substrate, primary screen, biochemical, fluorescence intensity, high mannose 6-phosphate (AID 1220)"}, "[6]": {"biological_target": "T2, Epstein-Barr nuclear antigen 1 (Epstein-Barr virus (strain B95-8) (HHV-4) (Human herpesvirus 4), UniProt P03211)", "T2 sequence (P03211 whole entry)": "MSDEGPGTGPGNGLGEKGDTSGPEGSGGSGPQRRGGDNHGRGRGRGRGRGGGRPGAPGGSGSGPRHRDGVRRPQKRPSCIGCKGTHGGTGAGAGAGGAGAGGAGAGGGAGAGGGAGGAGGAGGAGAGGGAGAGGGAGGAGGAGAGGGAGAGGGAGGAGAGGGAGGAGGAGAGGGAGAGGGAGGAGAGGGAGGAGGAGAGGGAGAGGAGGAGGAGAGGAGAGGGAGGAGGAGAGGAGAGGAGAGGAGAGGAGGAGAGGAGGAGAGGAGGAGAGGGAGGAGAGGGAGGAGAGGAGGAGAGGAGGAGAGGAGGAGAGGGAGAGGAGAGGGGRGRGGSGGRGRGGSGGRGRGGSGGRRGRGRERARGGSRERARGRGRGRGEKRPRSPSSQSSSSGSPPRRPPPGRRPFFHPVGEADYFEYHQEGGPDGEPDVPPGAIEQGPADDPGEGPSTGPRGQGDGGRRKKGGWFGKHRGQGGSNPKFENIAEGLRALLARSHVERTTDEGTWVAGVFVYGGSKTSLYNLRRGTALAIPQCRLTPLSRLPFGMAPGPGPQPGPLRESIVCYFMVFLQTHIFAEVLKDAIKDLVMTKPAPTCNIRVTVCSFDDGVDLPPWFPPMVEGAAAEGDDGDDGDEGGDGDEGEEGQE", "test": "EBNA-1 inhibitors, dose response, biochemical, fluorescence polarization, 1536-well (AID 2381);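 note: fluorescence polarization of a Cy5 DNA probe bound by EBNA-1 protein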", "design": "species or system human gammaherpesvirus 4"}, "[7]": {"biological_target": "T3, Lytic switch protein BZLF1 (Epstein-Barr virus (strain B95-8) (HHV-4) (Human herpesvirus 4), UniProt P03206)", "T3 sequence (P03206 whole entry)": "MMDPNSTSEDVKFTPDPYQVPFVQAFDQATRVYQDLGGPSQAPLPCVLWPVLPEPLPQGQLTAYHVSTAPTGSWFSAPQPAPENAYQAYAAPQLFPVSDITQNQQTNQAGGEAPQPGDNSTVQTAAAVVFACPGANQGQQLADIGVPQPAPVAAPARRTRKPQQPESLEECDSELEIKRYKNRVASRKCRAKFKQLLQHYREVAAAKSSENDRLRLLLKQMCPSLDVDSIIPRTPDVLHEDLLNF", "test": "EBV ZTA inhibitors, dose response, counter-screen for EBNA-1 inhibitor project, biochemical, fluorescence polarization, Epstein-Barr virus, 1536-well (AID 2377);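 note: fluorescence polarization of Cy5-labelled ZRE DNA probe bound by purified Zta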", "design": "species or system human gammaherpesvirus 4"}, "HT-1080": {"tested_on": "HT-1080", "test": "cytotoxicity in HT1080 fibrosarcoma cells, cell-based, fluorescence readout (AID 620)", "format": "functional", "settings": "Homo sapiens"}, "[8]": {"biological_target": "Luciferin 4-monooxygenase (Photinus pyralis, UniProt P08659)", "sequence (P08659 whole entry)": "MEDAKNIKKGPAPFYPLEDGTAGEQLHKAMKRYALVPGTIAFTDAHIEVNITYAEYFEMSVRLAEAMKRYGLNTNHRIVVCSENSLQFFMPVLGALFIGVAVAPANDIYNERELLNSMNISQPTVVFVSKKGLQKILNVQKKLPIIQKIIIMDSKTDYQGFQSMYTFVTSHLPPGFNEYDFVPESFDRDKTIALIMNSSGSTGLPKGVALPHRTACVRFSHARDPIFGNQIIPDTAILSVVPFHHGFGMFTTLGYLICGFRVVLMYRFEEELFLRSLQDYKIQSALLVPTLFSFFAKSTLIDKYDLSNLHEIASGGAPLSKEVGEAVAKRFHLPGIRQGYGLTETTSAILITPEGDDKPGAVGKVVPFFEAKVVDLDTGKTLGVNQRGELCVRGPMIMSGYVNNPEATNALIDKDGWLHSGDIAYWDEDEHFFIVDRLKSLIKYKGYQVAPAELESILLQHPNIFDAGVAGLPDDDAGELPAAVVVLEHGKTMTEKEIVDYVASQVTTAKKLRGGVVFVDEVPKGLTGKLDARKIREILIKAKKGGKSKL", "test": "Counter Screen for Luciferase-based Assay Positives. [Related pubchem assays: 620, 618, 411 ]"}, "[9]": {"test": "ZM109 Env clade C HIV-1 fusion inhibitors, dose response, HeLa effector, CEM target cells, luciferase, cherry-pick (AID 652058)", "format": "functional, cell-based"}, "[10]": {"test": "CEM21 lymphoblast cell cytotoxicity, dose response, cytotoxicity control for viral fusion inhibitor project, CellTiter-Glo luminescence, cherry-picked (AID 652042);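 note: potency for signal decrease meaning cytotoxicity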", "format": "functional, cell-based"}, "[11]": {"biological_target": "T4, Short transient receptor potential channel 4 (Mus musculus, UniProt Q9QUQ5)", "T4 sequence (Q9QUQ5 whole entry)": "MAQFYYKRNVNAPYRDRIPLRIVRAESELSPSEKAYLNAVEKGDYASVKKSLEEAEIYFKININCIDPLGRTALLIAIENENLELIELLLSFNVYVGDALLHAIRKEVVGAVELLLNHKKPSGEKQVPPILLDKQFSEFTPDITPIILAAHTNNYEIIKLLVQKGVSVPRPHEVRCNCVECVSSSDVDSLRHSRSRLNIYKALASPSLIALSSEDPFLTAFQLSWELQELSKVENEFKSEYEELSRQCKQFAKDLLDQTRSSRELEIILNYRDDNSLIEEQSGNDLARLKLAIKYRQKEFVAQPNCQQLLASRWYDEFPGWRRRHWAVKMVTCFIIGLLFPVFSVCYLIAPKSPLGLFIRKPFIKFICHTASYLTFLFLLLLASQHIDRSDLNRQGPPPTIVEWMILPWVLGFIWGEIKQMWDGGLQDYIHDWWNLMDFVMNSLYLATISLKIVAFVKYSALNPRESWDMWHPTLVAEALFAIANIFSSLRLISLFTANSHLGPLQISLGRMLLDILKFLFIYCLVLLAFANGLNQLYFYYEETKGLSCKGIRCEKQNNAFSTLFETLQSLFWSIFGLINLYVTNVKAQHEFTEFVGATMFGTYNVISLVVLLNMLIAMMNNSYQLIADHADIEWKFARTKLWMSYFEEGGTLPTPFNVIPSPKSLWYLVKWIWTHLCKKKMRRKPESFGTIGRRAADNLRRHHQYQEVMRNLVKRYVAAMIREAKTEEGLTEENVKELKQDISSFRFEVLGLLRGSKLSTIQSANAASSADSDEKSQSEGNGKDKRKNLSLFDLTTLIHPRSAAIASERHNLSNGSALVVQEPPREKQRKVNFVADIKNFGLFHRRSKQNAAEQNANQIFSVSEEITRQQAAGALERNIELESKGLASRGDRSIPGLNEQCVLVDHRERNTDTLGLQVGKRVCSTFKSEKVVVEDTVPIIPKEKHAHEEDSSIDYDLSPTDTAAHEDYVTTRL", "test": "mouse TRPC4 channel activators, dose response, cell-based, HEK293 TRPC4/mu-opioid, Fluo-4 calcium (AID 434937)", "format": "functional"}, "[12]": {"test": "off-target signal loss in HeLa-CEM21 co-culture – HeLa F-luc CTL cells, cherry-picked, counter-screen for HIV-1 Env fusion inhibitor project, dose response (AID 652040);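 note: potency for signal decrease marking cytotoxic or nonspecific inhibition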", "format": "functional, cell-based"}, "[13]": {"test": "inhibitors of clade B AD8 Env fusion, dose response, cell-based, cherry-pick (AID 652062);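 note: potency is for inhibitors of fusion seen as a drop in luminescence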", "format": "functional"}, "[14]": {"test": "inhibitors of HIV Env-driven cell fusion, dose response, cherry-pick (AID 652057)", "format": "functional, cell-based"}, "[15]": {"test": "THP-1 cell cytotoxicity, dose response, cytotoxicity control for Vif-APOBEC3G degradation inhibitor project, THP-1 cells (AID 1117359)", "format": "functional", "settings": "Human immunodeficiency virus 1, THP-1"}}, "note": "Active and inactive are the calls of the source.", "data": [{"compound": "O=C1CCCc2nn(-c3ccccc3)c(-c3ccncc3)c21", "values": [{"measurement": "IC50", "setting": "[1]", "value": "42.3 µM (not active)"}]}, {"compound": "CCCn1ncc(CN2CCCC(C(=O)c3cccc(OC)c3)C2)c1C", "note": "(configuration not stated)", "values": [{"measurement": "EC50", "setting": "[2]", "value": "26.4 µM (active)"}, {"measurement": "EC50", "setting": "cells", "value": "0.016 µM (active)"}, {"measurement": "EC50", "setting": "[3]", "value": "< 0.1 µM (active)"}]}, {"compound": "Oc1cc(-c2ccccc2)nc2nc3ccccc3n12", "values": [{"measurement": "AC50", "setting": "[4]", "value": "26 µM (active)"}, {"measurement": "IC50", "setting": "[1]", "value": "> 31 µM (not active)"}]}, {"compound": "O=[N+]([O-])c1ccc2c(c1NCCO)=NC1(CCCCC1)[N+]=2[O-]", "values": [{"measurement": "IC50", "setting": "[5]", "value": "> 50 µM (not active)"}]}, {"compound": "Cc1ccc(NC(=O)CSc2nnc(NC(=O)c3ccc(S(=O)(=O)N4CCOCC4)cc3)s2)cc1", "values": [{"measurement": "IC50", "setting": "[6]", "value": "15.7 µM (not active)"}, {"measurement": "IC50", "setting": "[7]", "value": "> 111 µM (not active)"}]}, {"compound": "O=C(Nc1ccccc1F)c1cc2c(s1)-c1ccccc1S(=O)(=O)C2", "values": [{"measurement": "IC50", "setting": "[6]", "value": "15.9 µM (not active)"}, {"measurement": "IC50", "setting": "[7]", "value": "93.7 µM (not active)"}]}, {"compound": "Cc1ccc(-n2nc3ccc(N)cc3n2)cc1", "values": [{"measurement": "EC50", "setting": "HT-1080", "value": "> 50 µM (not active)"}, {"measurement": "EC50", "setting": "[8]", "value": "> 100 µM (not active)"}]}, {"compound": "COc1cc(C)c(CNCCc2c[nH]c3ccccc23)cc1C", "values": [{"measurement": "AC50", "setting": "[9]", "value": "0.482 µM (active)"}, {"measurement": "AC50", "setting": "[10]", "value": "22.9 µM (active)"}, {"measurement": "EC50", "setting": "[11]", "value": "2.66 µM (active)"}, {"measurement": "AC50", "setting": "[12]", "value": "3.7 µM (active)"}, {"measurement": "AC50", "setting": "[13]", "value": "6.52 µM (active)"}, {"measurement": "AC50", "setting": "[14]", "value": "1.51 µM (active)"}]}, {"compound": "C=CCN1C(=O)c2ccc(C(=O)N3CCN(c4ccccc4OC)CC3)cc2C1=O", "values": [{"measurement": "CC50", "setting": "[15]", "value": "> 40 µM (active)"}]}, {"compound": "COc1cc(-c2nc3n(n2)C(c2cccc(OC)c2OC)C2=C(O)CCCC2=N3)cc(OC)c1OC", "note": "(configuration not stated)", "values": [{"measurement": "IC50", "setting": "[6]", "value": "12.9 µM (not active)"}, {"measurement": "IC50", "setting": "[7]", "value": "> 111 µM (not active)"}]}]}
